The values that follow come from publication PMC10126419, “pyHeart4Fish: Chamber-specific heart phenotype quantification of zebrafish in high-content screens” (Frontiers in Cell and Developmental Biology, 2023).

In data set [1] the test system is Tg(myl7:eGFP)^twu34/+ zebrafish embryos. The experiment in a line: Chamber-specific quantitative heart phenotyping with pyHeart4Fish.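 On all read-outs here: embryos exposed 24 h from 24 hpf in 0.2% DMSO egg water, tricaine-anaesthetised, heartbeat videos imaged at 470 nm and hearts analysed chamber by chamber from pixel-intensity beat curves.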 Particulars: 20 µM; for Effect on heart rate / Effect on heart function / morphology: contractility, conduction, arrhythmia, HS, EF: vs DMSO controls; for Arrhythmia / Conduction defect: number of fish.
Protocol: (§1) Embryos were dechorionated at 21 hpf using 0.22 mg/ml pronase (Merck Chemicals) for 12 min. Then, embryos were carefully washed three times with egg water and transferred into a 96-deep-well plate. After incubation at 28°C for 3 h, excess water was removed with a glass capillary and exchanged with 100 µL/well of 20 µM compound solution from the Prestwick Chemical Library (Prestwick Chemicals, France) in 0.2% DMSO (v/v) in egg water. […] Subsequently, embryos were exposed to compounds for 24 h at 28°C in the dark to enable testing of light-sensitive compounds. Solutions were removed at 48 hpf before wells containing embryos were washed three times with system water. Then, treated embryos were transferred into 12-well plates containing 1 ml 0.03% tricaine in system water (Sigma-Aldrich, Germany). Testing different concentrations (5–80 µM) of compounds and their respective controls followed the above protocol.
Oriented embryos in 96-well plates were automatically imaged using an [sequence] Imaging Machine ([sequence] Imaging, Germany) widefield microscope. Z-stacks of 10 slices (dZ = 15 µm) were acquired in brightfield (BF) and 470 nm channels with a 4×0.13 numerical aperture objective. The focal plane was detected in the 470 nm channel using a course and secondary fine software autofocus. BF integration time was fixed at 20 ms exposure time and 55% LED intensity. The exposure time for the 470 nm channel was set to 10 ms with a 10% LED intensity. Heartbeat videos of 6 s at 6 frames/second (f/s) were acquired with a time-lapse at a 0 s interval in the focus plane acquired after secondary autofocus using the previously described integration and exposure settings with a 10×0.25 numerical aperture objective.
Hearts are analyzed chamber-specifically via the user-assisted region of interest (ROI) selection. Cardiac morphology parameters (HS and shape) are extracted as the median of the first six images/frames. Raw data of heartbeat curves for the atrium and ventricle are derived from the sum of pixel intensities and normalized chamber areas. Frequencies (in s^-1) of atrium and ventricle contraction are obtained by applying sine-curve fitting or fast Fourier transformation (FFT) using the SciPy modules “optimize.curve_fit” and “fft.rfft/fft.rfftfreq”, respectively ([Virtanen et al., 2020]). Curve fitting is performed with a maximum of 30 iterations while increasing the frequencies of the fitted sine function. The best fit is selected using the correlation coefficient between the raw data and the fitted function implemented in the NumPy package. A fitted sine function and fitting score are also determined for a truncated signal (first quarter), and the best-fitted sine function is kept to account for an unstable heartbeat signal. In the case of FFT, the first harmonic of the FFT signal is used as the frequency of the atrium or ventricle contraction. Analysis with pyHeart4Fish provides heartbeat videos in GIF format, heartbeat curves as PNG/PDF files and a data sheet containing meta information and cardiac parameters.
The subject of data set [2] is zebrafish embryos. The data set is described as follows: Toxicity score (ToxScore) at increasing compound concentrations. Particulars: for ToxScore: 80 µM.
Protocol: as §1
Embryos that were deceased and not intact were assigned a max. ToxScore value of 5.
The test system of data set [3] is Tg(myl7:eGFP)^twu34/+ zebrafish embryos. Particulars: 20 µM; for Embryos with Mobitz type II atrioventricular block (AVB): Tg(myl7:eGFP)^twu34/+, zebrafish, in vivo, 24 h.
Description: Nevertheless, it is advised that arrhythmia types are confirmed manually, as was done in this study.
In data set [4] the test system is zebrafish embryos. The experiment in a line: Manually assessed pericardial edema in treated zebrafish. It counts as in vivo. Particulars: 20 µM; for Edema: Mild / Edema: Moderate / Edema: No edema / Edema: Severe: number of fish, Tg(myl7:eGFP); for Pericardial edema severity: myl7:eGFP zebrafish. From the text:
FIGURE 4 Quantitative data analysis with pyHeart4Fish. […] (A) The left graph presents the detected heart rate derived from the fast fourier transformation (FFT). […] (B) Percentual data on the severity of manually assessed pericardial edema in treated Tg(myl7:eGPF)^twu34/+ zebrafish. (C) The relative contractility derived from percentual size changes of each heart chamber (left graph). Approximate ejection fraction determined by chamber volume changes (right graph). […] The number of fish analyzed is shown in brackets after the treatment condition. Dotted gray lines indicate z-scores of ±1.96 and statistical significance with an alpha error of 5%.

Data set [5] has as its system zebrafish embryos. To be noted: 71 μM, ref Yang et al., 2014; cited from earlier work.
Data set [6] deals with zebrafish embryos. The experiment in a line: Gross morphology / development of treated zebrafish 2 dpf (brightfield). It counts as in vivo. To be noted: 20 µM, 2 dpf. Here is the method: FIGURE 5 Morphology of treated zebrafish 2 dpf. An overview of the gross phenotypes of treated zebrafish 2 days post-fertilization. All compounds were dissolved in DMSO; therefore, DMSO served as the negative control. NaCl served as the salt control. The effects of atorvastatin treatment on zebrafish embryos were previously established; thus, this drug was used as a positive control for cardioactivity. The aquatic toxic compound enilconazole was used as the toxic positive control. […] The black arrow in the image of iopanoic acid-treated zebrafish embryo indicates caudal fin deformity. The scale bar indicates 500 µm in overview brightfield images and 150 µm in fluorescence images. (a) Atrium; (v) ventricle.

Details of data set [7]: method as in Prestwick Chemical Library. Particulars: solvents; library annotation, ref Prestwick Chemical Library; cited from earlier work.
The subject of data set [8] is Tg(fli1a:nEGFP)^y7 zebrafish embryos. The data set is described as follows: Primary high-content heart rate screen of the Prestwick Chemical Library (HeartBeat software v.2.1). To be noted: Tg(fli1a:nEGFP)^y7, zebrafish, in vivo, 24 h, 20 µM. It counts as in vivo. From the text:
Acquired image series were preprocessed and analyzed using the previously published HeartBeat software v.2.1 and provided scripts ([Gierten et al., 2020]). For increased comparability between experiments, each quantitative HR value (beats per minute) was divided by the mean of the DMSO controls from the respective experiment. This procedure minimizes variation and creates specific fold-change values that are z-score normalized in the next step. A 90% CI was used to reduce the probability of false-negative results. Finally, data from compounds with insufficient N and known aquatic toxicity were removed.
Based on a previously established high-throughput screening pipeline, we performed a high-content drug screen in zebrafish for cardiovascular modulators ([Poureetezadi et al., 2014]; [Gierten et al., 2020]; [Westhoff et al., 2020]). […] About 98% of the library’s compounds are approved by the Food and Drug Administration (FDA), European Medicines Agency (EMA) or other regulatory agencies. The drug library was screened at a concentration of 20 µM for 24 h until 48 hpf using the transgenic zebrafish line Tg(fli1a:nEGFP)^y7. Subsequently, BF images and videos were captured at 2 dpf to assess gross morphology. HR was analyzed with the previously published tool HeartBeat (v.2.1) to identify potential hit compounds. A 90% CI threshold for effect sizes of ±1.64 was used to reduce false-negative results. […] The Open Targets platform and the Mayo Clinic Drugs and Supplements Database were systematically searched for compound names and common synonyms ([Drugs and Supplements, 2022]; [Open Targets, 2022]). The Medical Subject Headings (MeSH) terms “compound name” and “heart rate” were applied to NCBI PubMed literature research before the first five pages of publications sorted by relevance were screened for relevant information. Furthermore, compounds were filtered for unknown targets (n = 3), FDA black box warning (n = 6) and aquatic toxicity (n = 4). […] Therefore, compounds with n < 3 were excluded (n = 7).

Data set [9] deals with zebrafish embryos. The data set is described as follows: Manually assessed pericardial edema in treated zebrafish. The class given is in vivo. Particulars: 20 µM, fli1a:eGFP zebrafish.
Details of data set [10]: method as in Prestwick Chemical Library. Particulars: library annotation, ref Prestwick Chemical Library; cited from earlier work.

Molecules are shown by their SMILES. Entries after “also recorded” stand apart in the source; their conditions may differ. Structures can show the parent of a compound that is named as a salt. Bounds are passed on as bounds.

As for `CNCC[C@@H](Oc1cccc2ccccc12)c1cccs1` [(R)-Duloxetine HCl], in data set [1], the “Effect on heart rate” value was “not significantly decreased”, the Arrhythmia came out at 0 and the Conduction defect was found to be 2. For the same compound, in the data set on zebrafish embryos [2] (5–80 µM, listed as DLX), the “Concentration-dependent toxic effects” value is on record as “dose-dependently increased the ToxScore; also recorded: complete lethality at 80 µM”. For the same compound, the “Treated embryos with atrial flutter” value in data set [3] is recorded as 33%. Moreover, the “Fraction of embryos with atrial flutter” value in data set [3] (manual analysis of heartbeat videos) was “one-third”. For the same compound, in the data set with zebrafish embryos [4], the “Edema: Mild” value is reported as 1, the “Edema: Moderate” value turned out to be 3, the “Edema: No edema” value is reported as 0 and the “Edema: Severe” value stood at 2.
As for `C[C@@H]1C[C@@H]([C@H](O)CC2CC(=O)NC(=O)C2)C(=O)[C@@H](C)C1` [Cycloheximide], the “Effect on ventricular volume” value in the data set with zebrafish embryos [5] is recorded as “decreased ventricular volume”. In [1], this compound gave an Arrhythmia of 3 and a Conduction defect of 0. For the same compound, in the data set with zebrafish embryos [6] (listed as CHX), the “Gross morphology / developmental and teratogenic effects” value is listed as “bent tails; also recorded: development was delayed”. For the same compound, in the data set with zebrafish embryos [2] (5–80 µM), the “Concentration-dependent toxic effects” value was “doses higher than 40 µM induced cardiac arrest and severe pericardial edema”. Further, in the data set on zebrafish embryos [4], the “Pericardial edema severity” value is on record as “moderate to severe pericardial edema”, the “Edema: Mild” value was found to be 0, the “Edema: Moderate” value is given as 3 and the “Edema: No edema” value was determined as 1. Besides, the “Edema: Severe” value with zebrafish embryos [4] worked out at 3.
As for `CN(C)CCN(Cc1ccc(Cl)cc1)c1ccccn1` [Chloropyramine HCl, chloropyramine HCl], the “Lit. Solubility” value in data set [7] is on record as “DMSO”. In data set [1], the “Effect on heart function / morphology: contractility, conduction, arrhythmia, HS, EF” value (“Effect on heart function / morphology” below) is “a slower HR in the ventricle than in the atrium”; the “Effect on heart rate” value is reported as “decreased HR”; the Arrhythmia is reported as 0; the Conduction defect is 2. This compound returned a ToxScore in the data set with zebrafish embryos [2] of 4.8. Further, the “Z-score Heart rate” value in data set [8] is reported as -2.971 z-score. Further, the “Embryos with Mobitz type II atrioventricular block (AVB)” value in [3] stood at 18.2%. Besides, in the data set with zebrafish embryos [4], the “Edema: Mild” value came to 4, the “Edema: Moderate” value came to 7, the “Edema: No edema” value was determined as 0 and the “Edema: Severe” value is reported as 0.
In the case of `CN(C)CCN(Cc1ccccc1)c1ccccn1` [Tripelennamine HCl, tripelennamine HCl], the “Lit. Solubility” value in [7] was “DMSO”. In [1], the “Effect on heart rate” value is reported as “decreased HR”, the Arrhythmia came out at 0 and the Conduction defect is reported as 0. In addition, the “Gross morphology / developmental and teratogenic effects” value with zebrafish embryos [6] was “development was not delayed”. Besides, in the data set on zebrafish embryos [2] (5–80 µM), the “ToxScore, highest over tested concentrations” value is recorded as not above 2.6. Further, the “Z-score Heart rate” value in data set [8] is -2.358 z-score. For the same compound, in the data set with zebrafish embryos [4], the “Edema: Mild” value turned out to be 4, the “Edema: Moderate” value is 5, the “Edema: No edema” value amounted to 2 and the “Edema: Severe” value is 0.
On to `CCC(Cc1c(I)cc(I)c(N)c1I)C(=O)O` (stereo not drawn) [Iopanoic acid], for which, in [1], the “Effect on heart function / morphology” value is “Contractility, HS and EF were not affected”; the Arrhythmia came to 0; the Conduction defect was 0. The “Gross morphology / developmental and teratogenic effects” value in the data set on zebrafish embryos [6] (listed as IOP) is given as “developmental delay; also recorded: caudal fin deformities”. Moreover, the ToxScore in the data set on zebrafish embryos [2] turned out to be 4.4. In addition, the “Pericardial edema severity” value in the data set with zebrafish embryos [9] is given as “moderate edema”. Also, in the data set with zebrafish embryos [4], the “Pericardial edema severity” value is “mild edema”, the “Edema: Mild” value came out at 2, the “Edema: Moderate” value is listed as 1 and the “Edema: No edema” value worked out at 1. Also, in the data set with zebrafish embryos [4], the “Edema: Severe” value turned out to be 0.
Take `Cc1cccc(CN2CCN(C(c3ccccc3)c3ccc(Cl)cc3)CC2)c1.Cl.Cl` (stereo not drawn) [Meclozine dihydrochloride]: in data set [7], the “Lit. Solubility” value is recorded as “CHCl3, pyridine”. For the same compound, the “Metabolism: tissue” value in data set [10] is “Liver”.
`CN(C)CCN(Cc1cccs1)c1ccccn1` [Methapyrilene HCl, methapyrilene HCl]: the “Lit. Solubility” value in [7] is on record as “H2O, EtOH, CHCl3”. Moreover, in data set [1], the “Effect on heart rate” value is recorded as “decreased HR”, the Arrhythmia came out at 2 and the Conduction defect is 2. Also, the “Z-score Heart rate” value in data set [8] is -2.21 z-score. Besides, the “Embryos with Mobitz type II atrioventricular block (AVB)” value in [3] is on record as 50%. For the same compound, in the data set with zebrafish embryos [4], the “Edema: Mild” value amounted to 1, the “Edema: Moderate” value worked out at 2, the “Edema: No edema” value amounted to 1 and the “Edema: Severe” value is given as 1.
With `Oc1ccc(OCc2ccccc2)cc1` [Monobenzone], in data set [1], the “Effect on heart function / morphology” value is “did not cause any other alterations to heart phenotypes”; the Arrhythmia is given as 3; the Conduction defect was found to be 0. Also, the “Gross morphology / developmental and teratogenic effects” value in the data set on zebrafish embryos [6] is “caused depigmentation without delaying development”. Besides, the ToxScore in the data set on zebrafish embryos [2] was not above 2.5. In the data set on zebrafish embryos [4], the “Edema: Mild” value was 3, the “Edema: Moderate” value worked out at 2, the “Edema: No edema” value is 3 and the “Edema: Severe” value is recorded as 2.
For the compound `COc1ccc(CCN2CCC(Nc3nc4ccccc4n3Cc3ccc(F)cc3)CC2)cc1` [Astemizole], in data set [7], the “Lit. Solubility” value was “CH2Cl2, MeOH”. In [10], the “Metabolism: tissue” value is given as “Liver”. Moreover, in data set [8], the “Z-score Heart rate” value was -7.189 z-score.
